Laboratory results taken from PMC7736042, “Quinazolinones as Competitive Inhibitors of Carbonic Anhydrase-II (Human and Bovine): Synthesis, in-vitro, in-silico, Selectivity, and Kinetics Studies” (Frontiers in Chemistry, 2020).

Experiments:
[1] = molecular target: human carbonic anhydrase-II (hCA-II) (Homo sapiens, UniProt P00918); experiment: In-vitro hCA-II inhibition, spectrophotometric p-nitrophenyl acetate assay; assay type: biochemical; conditions: for IC50: NA = Not active; for selectivity hCA-II versus bCA-II: from in-vitro results on bCA-II and hCA-II
[2] = molecular target: bovine carbonic anhydrase-II (bCA-II) (Bos taurus, UniProt P00921); experiment: In-vitro bCA-II inhibition, spectrophotometric p-nitrophenyl acetate assay; assay type: biochemical; conditions: for IC50 / IC50 ± SEM: NA = Not active
Sequence of bovine carbonic anhydrase-II (bCA-II) (P00921 whole entry): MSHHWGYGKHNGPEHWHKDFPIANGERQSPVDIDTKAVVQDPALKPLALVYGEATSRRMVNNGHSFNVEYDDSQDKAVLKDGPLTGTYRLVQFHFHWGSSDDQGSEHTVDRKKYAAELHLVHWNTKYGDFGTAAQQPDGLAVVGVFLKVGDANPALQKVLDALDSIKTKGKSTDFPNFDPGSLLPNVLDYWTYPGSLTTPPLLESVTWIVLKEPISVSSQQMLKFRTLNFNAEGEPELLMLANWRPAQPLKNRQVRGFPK
Experimental: Each inhibitory well-consisted of 140 μL of HEPES-Tris buffer solution, 20 μL of bCA-II enzyme solution (0.1 mg/mL HEPES-Tris buffer), and 20 μL of test compound in HPLC grade DMSO (maintain 10% of the final concentration). […] Substrate p-nitrophenyl acetate (p-NPA) (0.7 mM) was prepared in HPLC grade methanol and the reaction was started by adding 20 μL to a well in a 96-well-plate. The amount of product formed was measured for 30 min continuously at 1 min intervals at 400 nm in a 96-well-plate using xMARK microplate spectrophotometer, Bio-Rad (USA). The activity of the controlled compound was taken as 100%. All experiments were carried out in triplicates of each used concentration, and results are represented as a mean of the triplicate.

hCA-II = hCA-II (Homo sapiens, UniProt P00918); experiment: Kinetics study on hCA-II (Lineweaver-Burk, secondary replot, Dixon plot); assay type: biochemical
Experimental: (§1) To investigate the mechanism of action of these compounds, kinetics studies were performed. The kinetics studies were used to discover the type of inhibition and dissociation constant (Ki). […] From the kinetics studies, it was deduced that the compound 4d is a competitive inhibitor for both bCA-II and hCA-II. The Lineweaver-Burk plots were used for determination of the type of inhibition, in which the reciprocal of substrate concentrations was plotted against the reciprocal of the rate of the reaction to monitor the effect of the inhibitor on both Km and Vmax. […] In competitive inhibition, the Km of enzyme increased, while Vmax are not affected.
(§2) Figure 3 The mode of inhibition of hCA-II by compound 4d. […] (B) Secondary re-plot of Lineweaver–Burk plot between the slopes of each line on Lineweaver–Burk plot vs. different concentrations of compound 4d. (C) Dixon plot of reciprocal rate of reaction (velocities) vs. different concentrations of compound 4d.
(§3) The Ki values of compounds 4d for both enzymes bCA-II and hCA-II were deduced by secondary replots of Lineweaver-Burk plots by plotting the slope of each line in the Lineweaver-Burk plots against different concentrations of compound 4d (Figures 2B, 3B). The Ki values were confirmed by Dixon plot after plotting the reciprocal of the rate of reaction against different concentrations of compound 4d (Figures 2C, 3C).

bCA-II = bCA-II (Bos taurus, UniProt P00921); experiment: Kinetics study on bCA-II (Lineweaver-Burk, secondary replot, Dixon plot); assay type: biochemical, bovine
Sequence of bCA-II (P00921 whole entry): as above
Experimental: as §1
as §2, with “2” for “3”, “bCA-II” for “hCA-II”
as §3

[3] = substrate p-nitrophenyl acetate

Row | Compound | inhibition at 500 µM ([1]; hCA-II, 0.5 mM) | melting point | inhibition at 500 µM ([2]; 0.5 mM) | IC50 [2] | IC50 ([1]; hCA-II) | selectivity hCA-II versus bCA-II [1] | mode of inhibition (hCA-II; Lineweaver-Burk plot) | Ki (hCA-II; [3]) | mode of inhibition (bCA-II; Lineweaver-Burk plot) | Ki (bCA-II; [3]) | IC50 ± SEM [2] | % Inhibition (0.5 mM) ([1]; hCA-II, 0.5 mM) | % Inhibition (0.5 mM) ([2]; 0.5 mM)
1 | Nn1c(-c2ccccc2Cl)nc2ccccc2c1=O [Compound 4l, 3-Amino-2-(2-Chlorophenyl) Quinazolin-4(3H)-one] | 28.7% | 160 to 162 °C | 78.2% | 10.7 ± 0.82 µM |  |  |  |  |  |  |  |  | 
2 | Cc1ccc(-c2nc3ccccc3c(=O)n2N)cc1 [Compound 4h, 3-Amino-2-(4-Methylphenyl) Quinazolin-4(3H)-one] | 92.4% | 294 to 296 °C | 92.4% | 38 ± 0.62 µM | 53 ± 2.12 µM |  |  |  |  |  |  |  | 
3 | Nn1c(-c2ccccc2Br)nc2ccccc2c1=O [Compound 4f, 3-Amino-2-(2-Bromophenyl) Quinazolin-4(3H)-one] | 98.9% | 204 to 206 °C | 88.9% | 17.9 ± 0.56 µM | 43.5 ± 1.51 µM |  |  |  |  |  |  |  | 
4 | Nn1c(-c2ccc(Br)cc2)nc2ccccc2c1=O [Compound 4g, 3-Amino-2-(4-Bromophenyl) Quinazolin-4(3H)-one] | 85.3% | 184 to 185 °C | 85.3% | 33.6 ± 0.22 µM | 14 ± 0.6 µM | more selective inhibitors for hCA-II |  |  |  |  |  |  | 
5 | Nn1c(-c2cccc([N+](=O)[O-])c2)nc2ccccc2c1=O [Compound 4d, 3-Amino-2-(3-Nitrophenyl) Quinazolin-4(3H)-one] | 94.2% | 206 to 208 °C | 92.9% | 19.7 ± 1.02 µM | 21.5 ± 0.52 µM |  | competitive | 14.25 ± 0.017 µM | competitive | 13 ± 0.013 µM |  |  | 
6 | Nn1c(-c2ccccc2F)nc2ccccc2c1=O [Compound 4i, 3-Amino-2-(2-Fluorophenyl) Quinazolin-4(3H)-one] | 27.8% | 169 to 170 °C | 17.6% |  |  |  |  |  |  |  | inactive |  | 
7 | Nn1c(-c2ccccc2)nc2ccccc2c1=O [Compound 4a, 3-Amino-2-Phenylquinazolin-4(3H)-one] | 75.2% | 200 to 202 °C | 75.2% | 53.6 ± 0.85 µM | 59.6 ± 1.03 µM |  |  |  |  |  |  |  | 
8 | Nn1c(-c2ccccc2[N+](=O)[O-])nc2ccccc2c1=O [Compound 4c, 3-Amino-2-(2-Nitrophenyl) Quinazolin-4(3H)-one] | 88.5% | 180 to 182 °C | 80.5% | 11.7 ± 0.36 µM | 21.1 ± 1.36 µM |  |  |  |  |  |  |  | 
9 | Nn1c(-c2cccc(Cl)c2)nc2ccccc2c1=O [Compound 4m, 3-Amino-2-(3-Chlorophenyl) Quinazolin-4(3H)-one] | 30.5% | 144 to 145 °C | 60% | 8.9 ± 0.31 µM |  |  |  |  |  |  |  |  | 
10 | COc1cc(-c2nc3ccccc3c(=O)n2N)cc(OC)c1OC [Compound 4p, 3-Amino-2-(3,4,5-Trimethoxyphenyl) Quinazolin-4(3H)-one] | 27.4% |  | 87.3% | 26.8 ± 0.23 µM |  |  |  |  |  |  |  |  | 
11 | Nn1c(-c2cccc(F)c2)nc2ccccc2c1=O [Compound 4j, 3-Amino-2-(3-Fluorophenyl) Quinazolin-4(3H)-one] | 28.1% | 164 to 165 °C | 78.6% | 46.6 ± 0.39 µM |  |  |  |  |  |  |  |  | 
12 | Nn1c(-c2ccc([N+](=O)[O-])cc2)nc2ccccc2c1=O [Compound 4e, 3-Amino-2-(4-nitrophenyl) quinazolin-4(3H)-one] | 92.7% | 224 to 225 °C | 80.7% | 9.1 ± 0.21 µM | 39.9 ± 2.21 µM |  |  |  |  |  |  |  | 
13 | Nn1c(-c2ccc(F)cc2)nc2ccccc2c1=O [Compound 4k, 3-Amino-2-(4-Fluorophenyl) Quinazolin-4(3H)-one] | 36.2% | 176 to 178 °C | 76.3% | 18.3 ± 0.51 µM |  |  |  |  |  |  |  |  | 
14 | Nn1c(-c2ccc(Cl)cc2)nc2ccccc2c1=O [Compound 4n, 3-Amino-2-(4-Chlorophenyl) Quinazolin-4(3H)-one] | 24.3% | 165 to 166 °C | 54.2% | 28.2 ± 0.01 µM |  |  |  |  |  |  |  |  | 
15 | COc1ccc(-c2nc3ccccc3c(=O)n2N)cc1 [Compound 4o, 3-Amino-2-(4-Methoxyphenyl) Quinazolin-4(3H)-one] | 89.4% |  | 19.9% |  | 22 ± 0.4 µM | more selective inhibitors for hCA-II |  |  |  |  | inactive |  | 
16 | 3-Amino-2-(Napthalen-1-yl) Quinazolin-4(3H)-one [Compound 4b] |  |  |  | 67.3 ± 0.42 µM |  |  |  |  |  |  |  | 38.1% | 83.6%
